ChEMBL document CHEMBL6153094, “Rationally designed highly amphipathic antimicrobial peptides demonstrating superior bacterial selectivity relative to the corresponding α-helix peptide” (Eur J Med Chem, 2025)
Where a SMILES comes first, the peptide text is derived from it. Bridges are numbered along the chain shown (N, C = ends). [ ]: non-standard residue; d: D form. The star is where a group is joined. X1 = CC[C@H](C)CCCCC(=O)*; Dab = NCC[C@H](N)C(=O)O

Key:
[1] = Acute toxicity in male Balb/c mouse assessed as animal death at 30 mg/kg, ip measured within 30 mins; format: organism-based; settings: in vivo, 0.5 h
[2] = Toxicity in male Balb/c mouse assessed as inflammatory cell infiltration in lungs at 22.48 mg/kg, ip administered for 7 days by H and E staining based analysis; format: organism-based; settings: in vivo, 168 h, time 7 day
[3] = Toxicity in male Balb/c mouse assessed as lethal dose administered intraperitoneally for 7 days; settings: in vivo, route ip, time 7 day
[4] = Toxicity in male Balb/c mouse assessed as lung bubble contraction at 22.48 mg/kg, ip administered for 7 days by H and E staining based analysis; format: organism-based; settings: in vivo, 168 h, time 7 day
[5] = Toxicity in male Balb/c mouse assessed as edema in liver at 22.48 mg/kg, ip administered for 7 days by H and E staining based analysis; format: organism-based; settings: in vivo, 168 h, time 7 day
[6] = Toxicity in male Balb/c mouse assessed as alveolar septum thickening at 22.48 mg/kg, ip administered for 7 days by H and E staining based analysis; format: organism-based; settings: in vivo, 168 h, time 7 day
[7] = Toxicity in male Balb/c mouse assessed as hemorrhage in liver at 22.48 mg/kg, ip administered for 7 days by H and E staining based analysis; format: organism-based; settings: in vivo, 168 h, time 7 day
[8] = Toxicity in male Balb/c mouse assessed as balloon-like degeneration in liver at 22.48 mg/kg, ip administered for 7 days by H and E staining based analysis; format: organism-based; settings: in vivo, 168 h, time 7 day
[9] = tested on: Staphylococcus epidermidis; assay: Antimicrobial activity against Staphylococcus epidermidis ATCC 12228 assessed as inhibition of visible bacterial growth incubated for 18 hrs by broth-dilution method; format: functional
Staphylococcus aureus [10] = assay: Synergistic antimicrobial activity against gentamicin-resistant Staphylococcus aureus ATCC 25923 assessed as fractional inhibitory concentration index incubated for 18 hrs in presence of gentamicin by checkerboard microdilution method; format: functional
Staphylococcus aureus [11] = assay: Antibacterial activity against Staphylococcus aureus ATCC 25923 assessed as fold change in MIC incubated for 18 hrs in presence of FeCl3 by Mueller-Hinton broth based assay; format: functional
Escherichia coli = assay: Antimicrobial activity against Escherichia coli ATCC 25922 assessed as inhibition of visible bacterial growth incubated for 18 hrs by broth microdilution method; format: functional
Pseudomonas aeruginosa [12] = assay: Antibacterial activity against Pseudomonas aeruginosa ATCC 27853 assessed as fold change in MIC incubated for 18 hrs in presence of NaCl by Mueller-Hinton broth based assay; format: functional
Pseudomonas aeruginosa [13] = assay: Antibiofilm activity in Pseudomonas aeruginosa ATCC 27853 assessed as inhibition of biofilm formation at 1 times of MIC incubated for 24 hrs by crystal violet staining based analysis relative to control; format: functional
Bacillus subtilis = assay: Antimicrobial activity against Bacillus subtilis ATCC 23857 assessed as inhibition of visible bacterial growth incubated for 18 hrs by broth microdilution method; format: functional
Staphylococcus aureus [14] = assay: Antibiofilm activity in Staphylococcus aureus ATCC 25923 assessed as inhibition of biofilm formation at 1/2 times of MIC incubated for 24 hrs by crystal violet staining based analysis relative to control; format: functional
Staphylococcus aureus [15] = assay: Antimicrobial activity against Staphylococcus aureus ATCC 25923 assessed as inhibition of visible bacterial growth incubated for 18 hrs by broth-dilution method; format: functional
Pseudomonas aeruginosa [16] = assay: Antibacterial activity against Pseudomonas aeruginosa ATCC 27853 assessed as fold change in MIC incubated for 18 hrs in presence of KCl by Mueller-Hinton broth based assay; format: functional
Enterococcus faecalis = assay: Antimicrobial activity against Enterococcus faecalis ATCC 29212 assessed as inhibition of visible bacterial growth incubated for 18 hrs by broth-dilution method; format: functional
Staphylococcus aureus [17] = assay: Antibacterial activity against Staphylococcus aureus ATCC 25923 assessed as fold change in MIC incubated for 18 hrs in presence of MgCl2 by Mueller-Hinton broth based assay; format: functional
Klebsiella pneumoniae = assay: Antimicrobial activity against Klebsiella pneumoniae ATCC 700603 assessed as inhibition of visible bacterial growth incubated for 18 hrs by broth microdilution method; format: functional
Staphylococcus aureus [18] = assay: Resistance fold, ratio of MIC for Staphylococcus aureus ATCC 25923 measured after 20 passages in presence of gentamicin to MIC for Staphylococcus aureus ATCC 25923 measured immediately in presence of gentamicin; format: functional
Staphylococcus aureus [19] = assay: Antibiofilm activity in Staphylococcus aureus ATCC 25923 assessed as inhibition of biofilm formation at 4 times of MIC incubated for 24 hrs by crystal violet staining based analysis relative to control; format: functional
Staphylococcus aureus [20] = assay: Antibacterial activity against Staphylococcus aureus ATCC 25923 assessed as fold change in MIC incubated for 18 hrs in presence of NaCl by Mueller-Hinton broth based assay; format: functional
Pseudomonas aeruginosa [21] = assay: Resistance fold, ratio of MIC for Pseudomonas aeruginosa ATCC 27853 measured after 20 passages to MIC for Pseudomonas aeruginosa ATCC 27853 measured immediately; format: functional
Pseudomonas aeruginosa [22] = assay: Antimicrobial activity against Pseudomonas aeruginosa ATCC 27853 assessed as inhibition of visible bacterial growth incubated for 18 hrs by broth microdilution method; format: functional
Staphylococcus aureus [23] = assay: Resistance fold, ratio of MIC for Staphylococcus aureus ATCC 25923 measured after 20 passages to MIC for Staphylococcus aureus ATCC 25923 measured immediately; format: functional
Pseudomonas aeruginosa [24] = assay: Resistance fold, ratio of MIC for Pseudomonas aeruginosa ATCC 27853 measured after 20 passages in presence of gentamicin to MIC for Pseudomonas aeruginosa ATCC 27853 measured immediately in presence of gentamicin; format: functional
Pseudomonas aeruginosa [25] = assay: Additive antimicrobial activity against gentamicin-resistant Pseudomonas aeruginosa ATCC 27853 assessed as fractional inhibitory concentration index incubated for 18 hrs in presence of gentamicin by checkerboard microdilution method; format: functional
Staphylococcus aureus [26] = assay: Antimicrobial activity against methicillin-drug resistant Staphylococcus aureus ATCC 33591 assessed as concentration required to eliminate 90% bacteria incubated for 18 hrs by broth-microdilution method; format: functional
Pseudomonas aeruginosa [27] = assay: Antibacterial activity against Pseudomonas aeruginosa ATCC 27853 assessed as fold change in MIC incubated for 18 hrs in presence of FeCl3 by Mueller-Hinton broth based assay; format: functional
Acinetobacter baumannii = assay: Antimicrobial activity against Acinetobacter baumannii ATCC 19606 assessed as inhibition of visible bacterial growth incubated for 18 hrs by broth microdilution method; format: functional
Pseudomonas aeruginosa [28] = assay: Antibacterial activity against Pseudomonas aeruginosa ATCC 27853 assessed as fold change in MIC incubated for 18 hrs in presence of ZnCl2 by Mueller-Hinton broth based assay; format: functional
Pseudomonas aeruginosa [29] = assay: Antibacterial activity against Pseudomonas aeruginosa ATCC 27853 assessed as fold change in MIC incubated for 18 hrs in presence of MgCl2 by Mueller-Hinton broth based assay; format: functional
Staphylococcus aureus [30] = assay: Antibiofilm activity in Staphylococcus aureus ATCC 25923 assessed as inhibition of biofilm formation at 2 times of MIC incubated for 24 hrs by crystal violet staining based analysis relative to control; format: functional
Staphylococcus aureus [31] = assay: Antibiofilm activity in Staphylococcus aureus ATCC 25923 assessed as inhibition of biofilm formation at 1 times of MIC incubated for 24 hrs by crystal violet staining based analysis relative to control; format: functional
Staphylococcus aureus [32] = assay: Antibacterial activity against Staphylococcus aureus ATCC 25923 assessed as fold change in MIC incubated for 18 hrs in presence of KCl by Mueller-Hinton broth based assay; format: functional
Staphylococcus aureus [33] = assay: Antibacterial activity against Staphylococcus aureus ATCC 25923 assessed as fold change in MIC incubated for 18 hrs in presence of ZnCl2 by Mueller-Hinton broth based assay; format: functional

CC(C)CCCCC(=O)N[C@@H](CCN)C(=O)N[C@H](C(=O)N[C@@H](CCN)C(=O)N[C@H]1CCNC(=O)[C@H]([C@@H](C)O)NC(=O)[C@H](CCN)NC(=O)[C@H](CCN)NC(=O)[C@H](CC(C)C)NC(=O)[C@@H](Cc2ccccc2)NC(=O)[C@H](CCN)NC1=O)[C@@H](C)O.CC[C@H](C)CCCCC(=O)N[C@@H](CCN)C(=O)N[C@H](C(=O)N[C@@H](CCN)C(=O)N[C@H]1CCNC(=O)[C@H]([C@@H](C)O)NC(=O)[C@H](CCN)NC(=O)[C@H](CCN)NC(=O)[C@H](CC(C)C)NC(=O)[C@@H](Cc2ccccc2)NC(=O)[C@H](CCN)NC1=O)[C@@H](C)O (X1-[Dab]T[Dab][Dab][Dab][dF]L[Dab][Dab]T; lactam 4-C) [listing 1 of 2 here]
Activity [1]: Toxic | Activity [2]: Toxic | LD50 at 168 h [3]: 22.5 mg/kg | Activity [4]: Toxic | Activity [5]: Toxic | Activity [6]: Toxic | Activity [7]: Toxic | Activity [8]: Toxic

CC(C)CCCCC(=O)N[C@@H](CCN)C(=O)N[C@H](C(=O)N[C@@H](CCN)C(=O)N[C@H]1CCNC(=O)[C@H]([C@@H](C)O)NC(=O)[C@H](CCN)NC(=O)[C@H](CCN)NC(=O)[C@H](CC(C)C)NC(=O)[C@@H](Cc2ccccc2)NC(=O)[C@H](CCN)NC1=O)[C@@H](C)O.CC[C@H](C)CCCCC(=O)N[C@@H](CCN)C(=O)N[C@H](C(=O)N[C@@H](CCN)C(=O)N[C@H]1CCNC(=O)[C@H]([C@@H](C)O)NC(=O)[C@H](CCN)NC(=O)[C@H](CCN)NC(=O)[C@H](CC(C)C)NC(=O)[C@@H](Cc2ccccc2)NC(=O)[C@H](CCN)NC1=O)[C@@H](C)O (X1-[Dab]T[Dab][Dab][Dab][dF]L[Dab][Dab]T; lactam 4-C) [listing 2 of 2 here]
MIC [9]: 8 µM | fractional inhibitory concentration index (FICI) (Staphylococcus aureus [10]): 0.375 | fold change (FC) (Staphylococcus aureus [11]): <=2 | MIC (Escherichia coli): < 1 µM | fold change (FC) (Pseudomonas aeruginosa [12]): 2 | inhibition (INH) (Pseudomonas aeruginosa [13]): >90% | MIC (Bacillus subtilis): 8 µM | inhibition (INH) (Staphylococcus aureus [14]): 55% | MIC (Staphylococcus aureus [15]): 16 µM | fold change (FC) (Pseudomonas aeruginosa [16]): <=2 | MIC (Enterococcus faecalis): 128 µM | fold change (FC) (Staphylococcus aureus [17]): <=2 | MIC (Klebsiella pneumoniae): < 1 µM | fold change (FC) (Staphylococcus aureus [18]): 8 | inhibition (INH) (Staphylococcus aureus [19]): ~80% | fold change (FC) (Staphylococcus aureus [20]): 8 | fold change (FC) (Pseudomonas aeruginosa [21]): 8 | MIC (Pseudomonas aeruginosa [22]): < 1 µM | fold change (FC) (Staphylococcus aureus [23]): 4 | fold change (FC) (Pseudomonas aeruginosa [24]): 8 | fractional inhibitory concentration index (FICI) (Pseudomonas aeruginosa [25]): 0.563 | EC90 (Staphylococcus aureus [26]): 11.1 µM | fold change (FC) (Pseudomonas aeruginosa [27]): <=2 | MIC (Acinetobacter baumannii): < 1 µM | fold change (FC) (Pseudomonas aeruginosa [28]): <=2 | fold change (FC) (Pseudomonas aeruginosa [29]): <=2 | inhibition (INH) (Staphylococcus aureus [30]): ~80% | inhibition (INH) (Staphylococcus aureus [31]): 75% | fold change (FC) (Staphylococcus aureus [32]): <=2 | fold change (FC) (Staphylococcus aureus [33]): <=2
